Drawing on patent US8815909B2, “Diaminocyclohexane compounds and uses thereof” (Bristol-Myers Squibb Company, priority 2011, dated 2014), this text covers EC50 for 28 compounds.

Counter-ions that a name gives are not always drawn.

The target of this test is T1, human Y4 receptor (Homo sapiens, UniProt P50391).
T1 construct: expressed in transfected cells
The test is described as follows: NPY4 cAMP HTRF Agonist Assay (inhibitory cAMP assay, Gi activation by Y4 agonism). It counts as cell-based. The settings on record: human Y4 stable CHO clonal cells, forskolin + IBMX; read-out: NPY4 cAMP HTRF Agonist Assay EC50. How it is done:
NPY4 cAMP HTRF Agonist Assay
The functionality of the compound at Y4 receptor was analyzed using a inhibitory cAMP assay (CISBIO, HTRF cAMP kit #62AM4PEC) to measure the Gi activation by Y4 agonism.
The human Y4 stable CHO clonal cells were maintained in culture medium (F-12 containing 10% Fetal Bovine Serum, […] GENETICIN®, […] Zeocin). Before the experiment, 5 μL of 1 uM Forskolin (Sigma, # F6886) and 100 uM IBMX (Sigma, # I5879) in PBS buffer were added into 384-well plates (PE, Proxi-plate) that were pre-dotted with 100 nL compounds. The cells were removed from the flasks by Cellstripper, counted and adjusted to 1.0×10^6 cells/mL in PBS buffer, and added 5 μL/well (5000 cells/well) into the above 384-well plates. The cells were then covered and incubated for 30 minutes at room temperature. After incubation, 5 μL/well of D2-conjugate in HTRF lysis buffer was first added, followed by adding 5 μL/well of anti-cAMP Cryptate in HTRF lysis buffer. The plates were incubated for another 1 hour at room temperature and read on the EnVision Multilabel Plate Reader.
Compounds described herein were tested in the above assay.
(In general: Time-resolved FRET reads energy transfer from a long-lived donor to a nearby acceptor.)

T1 sequence (P50391 whole entry): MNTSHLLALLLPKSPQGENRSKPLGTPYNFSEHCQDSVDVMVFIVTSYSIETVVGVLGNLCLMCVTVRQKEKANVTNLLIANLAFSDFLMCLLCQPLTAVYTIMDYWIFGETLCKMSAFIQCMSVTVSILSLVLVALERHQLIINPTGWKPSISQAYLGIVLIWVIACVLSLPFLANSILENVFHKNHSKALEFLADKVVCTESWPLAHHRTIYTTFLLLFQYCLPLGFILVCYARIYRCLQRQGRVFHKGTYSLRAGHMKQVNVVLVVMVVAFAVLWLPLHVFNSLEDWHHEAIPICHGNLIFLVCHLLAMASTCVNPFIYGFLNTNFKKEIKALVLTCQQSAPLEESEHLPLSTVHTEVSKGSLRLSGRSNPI

Usually EC50 stands for the concentration giving half of the maximal effect. With `O=[N+]([O-])c1ccc(N2CCC[C@H](N[C@@H]3CCCC[C@H]3Nc3nccc(-c4ccc(OC(F)(F)F)cc4)n3)C2)cc1` [Example 28, (1R,2R)—N1-((S)-1-(4-Nitrophenyl)piperidin-3-yl)-N2-(4-(4-(trifluoromethoxy)phenyl)pyrimidin-2-yl)cyclohexane-1,2-diamine], the EC50 came out at 217 nM. The same measure for `O=[N+]([O-])c1ccc(N2CCC[C@H](N[C@@H]3CCCC[C@H]3Nc3nccc(-c4cccc(OC(F)(F)F)c4)n3)C2)cc1` [Example 29, (1R,2R)—N1-((S)-1-(4-Nitrophenyl)piperidin-3-yl)-N2-(4-(3-(trifluoromethoxy)phenyl)pyrimidin-2-yl)cyclohexane-1,2-diamine]: 389 nM. The same measure for `COc1cccc(-c2ccnc(N[C@@H]3CCCC[C@H]3N[C@H]3CCCN(c4ccc([N+](=O)[O-])cc4)C3)n2)c1` [Example 30, (1R,2R)—N1-(4-(3-Methoxyphenyl)pyrimidin-2-yl)-N2-((S)-1-(4-nitrophenyl)piperidin-3-yl)cyclohexane-1,2-diamine]: 203 nM. Next, `COc1ccc(-c2ccnc(N[C@@H]3CCCC[C@H]3N[C@H]3CCCN(c4ccc([N+](=O)[O-])cc4)C3)n2)cc1` [Example 31, (1R,2R)—N1-(4-(4-Methoxyphenyl)pyrimidin-2-yl)-N2-((S)-1-(4-nitrophenyl)piperidin-3-yl)cyclohexane-1,2-diamine]: 241 nM. Turning to `O=[N+]([O-])c1ccc(N2CCC[C@H](N[C@@H]3CCCC[C@H]3Nc3nccc(-c4ccccc4)n3)C2)cc1` [Example 32, (1R,2R)—N1-((S)-1-(4-Nitrophenyl)piperidin-3-yl)-N2-(4-phenylpyrimidin-2-yl)cyclohexane-1,2-diamine], the EC50 stood at 60 nM. The same measure for `N#Cc1ccc(N2CCC[C@H](N[C@@H]3CCCC[C@H]3Nc3cc(-c4cc[nH]n4)ccn3)C2)cc1` [Example 33, 4-((S)-3-((1R,2R)-2-(4-(1H-Pyrazol-3-yl)pyridin-2-ylamino)cyclohexylamino)piperidin-1-yl)benzonitrile tris-trifluoroacetate]: 322 nM; for `Cn1nccc1-c1ccnc(N[C@@H]2CCCC[C@H]2N[C@H]2CCCN(c3ccc(C#N)cc3)C2)c1` [Example 34, 4-((S)-3-((1R,2R)-2-(4-(1-Methyl-1H-pyrazol-5-yl)pyridin-2-ylamino)cyclohexylamino)piperidin-1-yl)benzonitrile tris-trifluoroacetate]: 150 nM.

With `N#Cc1ccc(N2CCC[C@H](N[C@@H]3CCCC[C@H]3Nc3ncc(-c4cccc(F)c4)o3)C2)cc1` [Example 35, 4-((S)-3-((1R,2R)-2-(5-(3-Fluorophenyl)oxazol-2-ylamino)cyclohexylamino)piperidin-1-yl)benzonitrile], the EC50 was determined as 42 nM. `N#Cc1ccc(N2CCC[C@H](N[C@@H]3CCCC[C@H]3Nc3cc(-c4cccc(F)c4)ccn3)C2)cc1` [Example 36, 4-((S)-3-((1R,2R)-2-(4-(3-Fluorophenyl)pyridin-2-ylamino)cyclohexylamino)piperidin-1-yl)benzonitrile tris-trifluoroacetate]: the EC50 amounted to 262 nM. In the case of `N#Cc1ccc(N2CCC[C@H](N[C@@H]3CCCC[C@H]3Nc3cc(-c4ccccc4F)ccn3)C2)cc1` [Example 37, 4-((S)-3-((1R,2R)-2-(4-(2-Fluorophenyl)pyridin-2-ylamino)cyclohexylamino)piperidin-1-yl)benzonitrile tris-trifluoroacetate], the EC50 was found to be 82 nM. Next, `N#Cc1ccc(N2CCC[C@H](N[C@@H]3CCCC[C@H]3Nc3ncc(-c4ccc(OC(F)(F)F)cc4)o3)C2)cc1Cl` [Example 38, 2-Chloro-4-((S)-3-((1R,2R)-2-(5-(4-(trifluoromethoxy)phenyl)oxazol-2-ylamino)cyclohexylamino)piperidin-1-yl)benzonitrile bis-trifluoroacetate]: 8 nM. Next, `N#Cc1ccc(N2CCC[C@H](N[C@@H]3CCCC[C@H]3Nc3ncc(-c4ccccc4F)o3)C2)cc1Cl` [Example 39, 2-Chloro-4-((S)-3-((1R,2R)-2-(5-(2-fluorophenyl)oxazol-2-ylamino)cyclohexylamino)piperidin-1-yl)benzonitrile bis-trifluoroacetate]: 35 nM; `N#Cc1ccc(N2CCC[C@H](N[C@@H]3CCCC[C@H]3Nc3nccc(-c4ccccc4)n3)C2)cc1Cl` [Example 40, 2-Chloro-4-((S)-3-((1R,2R)-2-(4-phenylpyrimidin-2-ylamino)cyclohexylamino)piperidin-1-yl)benzonitrile bis-trifluoroacetate]: 29 nM; `N#Cc1ccc(N2CCC[C@H](N[C@@H]3CCCC[C@H]3Nc3noc(-c4ccccc4)n3)C2)cc1` [Example 41]: 2510 nM. For `N#Cc1ccc(N2CCC[C@H](N[C@@H]3CCCC[C@H]3Nc3ncc(-c4ccccc4)s3)C2)cc1` [Example 42, 4-((S)-3-((1R,2R)-2-(5-Phenylthiazol-2-ylamino)cyclohexylamino)piperidin-1-yl)benzonitrile], the EC50 was determined as 45 nM. Next, `N#Cc1ccc(N2CCC[C@H](N[C@@H]3CCCC[C@H]3Nc3cc(-c4ccc(OC(F)F)cc4)ccn3)C2)cc1` [Example 43, 4-((S)-3-((1R,2R)-2-(4-(4-(Difluoromethoxy)phenyl)pyridin-2-ylamino)cyclohexylamino)piperidin-1-yl)benzonitrile tris-trifluoroacetate]: 18 nM; `N#Cc1ccc(N2CCC[C@H](N[C@@H]3CCCC[C@H]3Nc3cc(-c4ccc(F)cc4)ccn3)C2)cc1` [Example 44, 4-((S)-3-((1R,2R)-2-(4-(4-Fluorophenyl)pyridin-2-ylamino)cyclohexylamino)piperidin-1-yl)benzonitrile tris-trifluoroacetate]: 50 nM. On to `N#Cc1ccc(N2CCC[C@H](N[C@@H]3CCCC[C@H]3Nc3cc(-c4ccc(O)cc4)ccn3)C2)cc1` [Example 45, 4-((S)-3-((1R,2R)-2-(4-(4-Hydroxyphenyl)pyridin-2-ylamino)cyclohexylamino)piperidin-1-yl)benzonitrile tris-trifluoroacetate], for which the EC50 stood at 19 nM. Next, `N#Cc1ccc(N2CCC[C@H](N[C@@H]3CCCC[C@H]3Nc3cc(-c4ccc(Cl)cc4)ccn3)C2)cc1` [Example 46, 4-((S)-3-((1R,2R)-2-(4-(4-Chlorophenyl)pyridin-2-ylamino)cyclohexylamino)piperidin-1-yl)benzonitrile tris-trifluoroacetate]: 208 nM; `N#Cc1ccc(N2CCC[C@H](N[C@@H]3CCCC[C@H]3Nc3nccc(-c4ccccc4)n3)C2)cc1F` [Example 47, 2-Fluoro-4-((S)-3-((1R,2R)-2-(4-phenylpyrimidin-2-ylamino)cyclohexylamino)piperidin-1-yl)benzonitrile bis-trifluoroacetate]: 34 nM; `N#Cc1ccc(N2CCC[C@H](N[C@@H]3CCCC[C@H]3Nc3ncc(-c4ccccc4)o3)C2)cc1F` [Example 48, 2-Fluoro-4-((S)-3-((1R,2R)-2-(5-phenyloxazol-2-ylamino)cyclohexylamino)piperidin-1-yl)benzonitrile bis-trifluoroacetate]: 6 nM.

Consider `N#Cc1ccc(N2CCC[C@H](N[C@@H]3CCCC[C@H]3Nc3ncc(-c4ccc(OC(F)(F)F)cc4)o3)C2)cc1F` [Example 49, 2-Fluoro-4-((S)-3-((1R,2R)-2-(5-(4-(trifluoromethoxy)phenyl)oxazol-2-ylamino)cyclohexylamino)piperidin-1-yl)benzonitrile bis-trifluoroacetate], for which the EC50 turned out to be 2 nM. Regarding `N#Cc1ccc(N2CCC[C@H](N[C@@H]3CCCC[C@H]3Nc3cc(Br)ccn3)C2)cc1` [Example 50, 4-((S)-3-((1R,2R)-2-(4-Bromopyridin-2-ylamino)cyclohexylamino)piperidin-1-yl)benzonitrile], the EC50 stood at 231 nM.

On to `N#Cc1ccc(N2CCC[C@H](N[C@@H]3CCCC[C@H]3Nc3ncc(-c4ccccc4)o3)C2)c(F)c1` [Example 51, 3-Fluoro-4-((S)-3-((1R,2R)-2-(5-phenyloxazol-2-ylamino)cyclohexylamino)piperidin-1-yl)benzonitrile], for which the concentration for a half-maximal effect (EC50) worked out at 548 nM. Take `N#Cc1ccc(N2CCC[C@H](N[C@@H]3CCCC[C@H]3Nc3ncc(-c4ccc(OC(F)(F)F)cc4)o3)C2)c(F)c1` [Example 52, 3-Fluoro-4-((S)-3-((1R,2R)-2-(5-(4-(trifluoromethoxy)phenyl)oxazol-2-ylamino)cyclohexylamino)piperidin-1-yl)benzonitrile]: the EC50 was 193 nM. Take `N#Cc1ccc(N2CCC[C@H](N[C@@H]3CCCC[C@H]3Nc3cc(-c4ccccc4)ccn3)C2)cc1` [Example 53, 4-((S)-3-((1R,2R)-2-(4-Phenylpyridin-2-ylamino)cyclohexylamino)piperidin-1-yl)benzonitrile bis-trifluoroacetate]: the EC50 stood at 95 nM. Next, `N#Cc1ccc(N2CCC[C@H](N[C@@H]3CCCC[C@H]3Nc3nnc(-c4ccccc4)o3)C2)cc1` [Example 54, 4-((S)-3-((1R,2R)-2-(5-Phenyl-1,3,4-oxadiazol-2-ylamino)cyclohexylamino)piperidin-1-yl)benzonitrile trifluoroacetate]: 272 nM; `N#Cc1ccc(N2CCC[C@H](N[C@@H]3CCCC[C@H]3Nc3nc4ccccc4o3)C2)cc1` [Example 55, 4-((S)-3-((1R,2R)-2-(Benzo[d]oxazol-2-ylamino)cyclohexylamino)piperidin-1-yl)benzonitrile]: 463 nM.
